Where “and” joins values, the source holds several entries; their conditions need not be identical. Identical values can stand only once. Toxic doses and inconclusive results are not listed.
System: BDF1 mice, P388 leukemia ip, median survival T/C
Assay: NCI In Vivo Anticancer Drug Screen. Data for tumor model P388 Leukemia (intraperitoneal) in B6D2F1 (BDF1) mice
Details: endpoint: median survival time, higher = longer survival
Summary of the method: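 In tumour-bearing mice, survival after compound treatment is set against the vehicle group and given as a quotient.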

[1] = dose: 100.0 mg/kg/injection, schedule: Q01DX009 (ip), vehicle: Klucel (hydroxypropylcellulose) (HPC)
[2] = dose: 100.0 mg/kg/injection, schedule: Q04DX003 (ip), vehicle: Klucel (hydroxypropylcellulose) (HPC)
[3] = dose: 200.0 mg/kg/injection, schedule: Q04DX003 (ip), vehicle: Klucel (hydroxypropylcellulose) (HPC)
[4] = dose: 100.0 mg/kg/injection, schedule: Q01DX009 (ip), vehicle: saline
[5] = dose: 100.0 mg/kg/injection, schedule: Q04DX003 (ip), vehicle: saline
[6] = dose: 200.0 mg/kg/injection, schedule: Q01DX009 (ip), vehicle: saline
[7] = dose: 200.0 mg/kg/injection, schedule: Q04DX003 (ip), vehicle: saline
[8] = dose: 400.0 mg/kg/injection, schedule: Q01DX009 (ip), vehicle: saline
[9] = dose: 400.0 mg/kg/injection, schedule: Q04DX003 (ip), vehicle: saline
[10] = dose: 50.0 mg/kg/injection, schedule: Q01DX009 (ip), vehicle: saline with Tween-80
[11] = dose: 100.0 mg/kg/injection, schedule: Q01DX009 (ip), vehicle: saline with Tween-80
[12] = dose: 200.0 mg/kg/injection, schedule: Q01DX009 (ip), vehicle: saline with Tween-80
[13] = dose: 50.0 mg/kg/injection, schedule: Q01DX009 (ip), vehicle: saline
[14] = dose: 25.0 mg/kg/injection, schedule: Q01DX009 (ip), vehicle: saline with Tween-80
[15] = dose: 25.0 mg/kg/injection, schedule: Q04DX003 (ip), vehicle: saline with Tween-80
[16] = dose: 50.0 mg/kg/injection, schedule: Q04DX003 (ip), vehicle: saline with Tween-80
[17] = dose: 400.0 mg/kg/injection, schedule: Q04DX003 (ip), vehicle: saline with Tween-80
[18] = dose: 100.0 mg/kg/injection, schedule: Q04DX003 (ip), vehicle: saline with Tween-80
[19] = dose: 200.0 mg/kg/injection, schedule: Q04DX003 (ip), vehicle: saline with Tween-80
[20] = dose: 400.0 mg/kg/injection, schedule: Q04DX003 (ip), vehicle: Klucel (hydroxypropylcellulose) (HPC)

O=Cc1ccccc1B(O)O
T/C (dose: 50.0 mg/kg/injection, schedule: Q01DX009 (ip), vehicle: Klucel (hydroxypropylcellulose) (HPC)): 108 % of control and 109 % of control
T/C (dose: 50.0 mg/kg/injection, schedule: Q04DX003 (ip), vehicle: Klucel (hydroxypropylcellulose) (HPC)): 92 % of control
T/C [1]: 108 % of control and 118 % of control
T/C [2]: 100 % of control
T/C [3]: 107 % of control

Cc1ccc(NCCN2CCOCC2)c2c(=O)c3ccccc3sc12
T/C [4]: 90 % of control
T/C [5]: 110 % of control
T/C [6]: 109 % of control
T/C [7]: 110 % of control
T/C [8]: 122 % of control
T/C [9]: 110 % of control

CNC(=S)NC1C2CC3CC(C2)CC1C3 (stereo unspecified)
T/C [10]: 94 % of control
T/C [11]: 94 % of control
T/C [12]: 94 % of control

CC(=O)Nc1ccccc1F
T/C [1]: 100 % of control
T/C [2]: 87 % of control
T/C (dose: 200.0 mg/kg/injection, schedule: Q01DX009 (ip), vehicle: Klucel (hydroxypropylcellulose) (HPC)): 91 % of control
T/C [3]: 104 % of control
T/C (dose: 400.0 mg/kg/injection, schedule: Q01DX009 (ip), vehicle: Klucel (hydroxypropylcellulose) (HPC)): 100 % of control

CCCCCCCCNC12CC3CC(CC(C3)C1)C2
T/C (dose: 6.25 mg/kg/injection, schedule: Q04DX003 (ip), vehicle: saline): 104 % of control
T/C (dose: 12.5 mg/kg/injection, schedule: Q04DX003 (ip), vehicle: saline): 108 % of control
T/C (dose: 25.0 mg/kg/injection, schedule: Q04DX003 (ip), vehicle: saline): 116 % of control
T/C (dose: 50.0 mg/kg/injection, schedule: Q04DX003 (ip), vehicle: saline): 100 % of control
T/C [5]: 108 % of control

NCC(O)CSc1ccccc1 (stereo unspecified)
T/C (dose: 25.0 mg/kg/injection, schedule: Q01DX009 (ip), vehicle: saline): 95 % of control
T/C [13]: 100 % of control
T/C [4]: 106 % of control

CC(=O)O.[Cd]
T/C (dose: 5.0 mg/kg/injection, schedule: Q04DX003 (ip), vehicle: saline): 95 % of control

CCOC(=O)c1ccc2c3c([nH]c2c1C)-c1ccccc1CC3
T/C [10]: 120 % of control
T/C [11]: 111 % of control
T/C [12]: 118 % of control

O=C(Nc1ccc([N+](=O)[O-])cc1)Nc1ccc([N+](=O)[O-])cc1
T/C (dose: 50.0 mg/kg/injection, schedule: Q04DX003 (ip), vehicle: saline sonified): 86 % of control
T/C (dose: 100.0 mg/kg/injection, schedule: Q04DX003 (ip), vehicle: saline sonified): 86 % of control
T/C (dose: 200.0 mg/kg/injection, schedule: Q04DX003 (ip), vehicle: saline sonified): 90 % of control

O=C1CNC(=O)c2cc(N=Cc3cc(Br)ccc3O)ccc2N1
T/C [10]: 99 % of control
T/C [11]: 89 % of control
T/C [12]: 100 % of control

CCOC(=O)CC(C)=O.[Cu+2]
T/C (dose: 6.25 mg/kg/injection, schedule: Q01DX009 (ip), vehicle: Klucel (hydroxypropylcellulose) (HPC)): 100 % of control
T/C (dose: 12.5 mg/kg/injection, schedule: Q01DX009 (ip), vehicle: Klucel (hydroxypropylcellulose) (HPC)): 90 % of control

COc1ccc(N=NNc2ccc(OC)cc2)cc1
T/C [14]: 154 % of control
T/C (dose: 37.5 mg/kg/injection, schedule: Q01DX009 (ip), vehicle: saline with Tween-80): 155 % of control and 166 % of control

CCC1C/C(=C\NC(N)=O)C(=O)O1 (stereo unspecified)
T/C (dose: 6.25 mg/kg/injection, schedule: Q04DX003 (ip), vehicle: saline with Tween-80): 96 % of control
T/C (dose: 12.5 mg/kg/injection, schedule: Q04DX003 (ip), vehicle: saline with Tween-80): 111 % of control
T/C [15]: 104 % of control
T/C [16]: 104 % of control
T/C [17]: 86 % of control

O=C(COc1ccc(Cl)cc1Cl)Nc1ccc(F)cc1
T/C [18]: 95 % of control
T/C [19]: 100 % of control
T/C [17]: 90 % of control

CC1=C(C)C(=O)c2c(OC(=O)c3ccccc3)c(Cl)cc(OC(=O)c3ccccc3)c2C1=O
T/C [15]: 93 % of control
T/C [16]: 92 % of control
T/C [18]: 89 % of control and 94 % of control
T/C [19]: 93 % of control
T/C [17]: 109 % of control

CC(=O)C(C)(CCC#N)CCC#N
T/C [16]: 104 % of control
T/C [18]: 100 % of control

C1=CC2CCC(C1)C21OCCO1 (stereo unspecified)
T/C [4]: 90 % of control
T/C [5]: 95 % of control
T/C [6]: 109 % of control
T/C [7]: 104 % of control
T/C [8]: 109 % of control
T/C [9]: 108 % of control

CCCCCCCCCCOP(=S)(N1CC1)N1CC1
T/C (dose: 12.5 mg/kg/injection, schedule: Q01DX009 (ip), vehicle: saline with Tween-80): 108 % of control
T/C (dose: 13.0 mg/kg/injection, schedule: Q04DX003 (ip), vehicle: saline with Tween-80): 113 % of control
T/C (dose: 20.0 mg/kg/injection, schedule: Q04DX003 (ip), vehicle: saline with Tween-80): 152 % of control
T/C [14]: 245 % of control
T/C (dose: 33.0 mg/kg/injection, schedule: Q04DX003 (ip), vehicle: saline with Tween-80): 169 % of control
T/C (dose: 44.0 mg/kg/injection, schedule: Q04DX003 (ip), vehicle: saline with Tween-80): 195 % of control
T/C [10]: 183 % of control
T/C [16]: 226 % of control
T/C (dose: 67.0 mg/kg/injection, schedule: Q04DX003 (ip), vehicle: saline with Tween-80): 272 % of control
T/C (dose: 75.0 mg/kg/injection, schedule: Q04DX003 (ip), vehicle: saline with Tween-80): 243 % of control
T/C [18]: 272 % of control
T/C (dose: 125.0 mg/kg/injection, schedule: Q04DX003 (ip), vehicle: saline with Tween-80): 165 % of control
T/C (dose: 150.0 mg/kg/injection, schedule: Q04DX003 (ip), vehicle: saline with Tween-80): 272 % of control

O=C1C=CC(=O)N1Cc1ccco1
T/C [13]: 100 % of control
T/C [4]: 91 % of control and 95 % of control
T/C [6]: 100 % of control
T/C [8]: 91 % of control

CC(=O)OC1C=CCC23C(=O)C=CC(=O)C12C(=O)c1ccccc1C3=O (stereo unspecified)
T/C (dose: 1.56 mg/kg/injection, schedule: Q01DX009 (ip), vehicle: saline): 102 % of control
T/C (dose: 3.12 mg/kg/injection, schedule: Q01DX009 (ip), vehicle: saline): 93 % of control
T/C (dose: 6.25 mg/kg/injection, schedule: Q01DX009 (ip), vehicle: saline): 95 % of control
T/C (dose: 12.5 mg/kg/injection, schedule: Q01DX009 (ip), vehicle: saline): 95 % of control
T/C [13]: 107 % of control

OC12CCCC3CCCC(CCC1)C32 (stereo unspecified)
T/C [2]: 100 % of control
T/C [3]: 100 % of control
T/C [20]: 100 % of control

CN(C)C1Cc2ccccc2C1OC(=O)c1ccccc1 (stereo unspecified)
T/C [13]: 103 % of control
T/C [6]: 91 % of control

CC[C@@H](c1ccc(O)cc1)[C@@H](CC)c1ccc(O)cc1
T/C [13]: 90 % of control
T/C [4]: 109 % of control
T/C (dose: 100.0 mg/kg/injection, schedule: Q04DX003 (ip), vehicle: alcohol): 94 % of control
T/C (dose: 200.0 mg/kg/injection, schedule: Q04DX003 (ip), vehicle: alcohol): 100 % of control

COc1ccc(C(CC(C)=O)c2c(O)c3ccccc3oc2=O)cc1OC (stereo unspecified)
T/C (dose: 3.12 mg/kg/injection, schedule: Q04DX003 (ip), vehicle: water): 98 % of control
T/C (dose: 6.25 mg/kg/injection, schedule: Q01DX009 (ip), vehicle: water): 100 % of control
T/C (dose: 6.25 mg/kg/injection, schedule: Q04DX003 (ip), vehicle: water): 101 % of control
T/C (dose: 12.5 mg/kg/injection, schedule: Q01DX009 (ip), vehicle: water): 100 % of control
T/C (dose: 12.5 mg/kg/injection, schedule: Q04DX003 (ip), vehicle: water): 100 % of control
T/C (dose: 25.0 mg/kg/injection, schedule: Q04DX003 (ip), vehicle: water): 105 % of control
T/C (dose: 50.0 mg/kg/injection, schedule: Q04DX003 (ip), vehicle: water): 100 % of control
T/C (dose: 100.0 mg/kg/injection, schedule: Q04DX003 (ip), vehicle: water): 100 % of control and 102 % of control
T/C (dose: 200.0 mg/kg/injection, schedule: Q04DX003 (ip), vehicle: water): 101 % of control
T/C (dose: 400.0 mg/kg/injection, schedule: Q04DX003 (ip), vehicle: water): 90 % of control

CN(C)P(N)(N)=O
T/C [2]: 100 % of control
T/C [3]: 100 % of control
T/C [20]: 95 % of control

Source: PubChem BioAssay AID328 (DTP/NCI, 2004)
